Tests used:
blackgrass = test: Test B postemergence herbicide test; format: in vivo, Alopecurus myosuroides; settings: scale 0 (no effect) to 100 (complete control)
In short: (§1)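 After treating 2-leaf paddy plants or 2–18 cm postemergence plants (1 to 4 leaves) with formulated chemical, researchers kept them in a greenhouse for 13–15 days. Effects were judged visually versus controls: 0 indicates none, 100 total control.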

cocklebur = test: Test B pre-/postemergence herbicide test; format: in vivo, Xanthium strumarium
In short: (§2)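 Flooded paddy rice and barnyardgrass were treated at the 2-leaf stage; upland plantings received compound either on sown seed or on 1- to 4-leaf seedlings. All were kept 13–15 days in a greenhouse and scored visually, 0–100, relative to untreated plants.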

wheat = test: Test B postemergence herbicide test; format: in vivo, Triticum aestivum; set-up: key to Wheat plant response rating: 0 = no effect, 100 = complete control; settings: scale 0 (no effect) to 100 (complete control)
In short: as §1

giant foxtail [1] = test: Test A pre-/postemergence herbicide test; format: in vivo, Setaria faberi; settings: for Plant response rating, Foxtail, Giant: Postemergence; for Foxtail, Giant plant response rating: Preemergence
In short: (§3)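 Plants are held in greenhouse about ten days after treatment, then compared with untreated controls and scored 0 (no effect) to 100 (complete control). Preemergence dosing is a directed soil spray on sown sandy loam; postemergence dosing is spray to runoff at 2–10 cm height.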

Surinam grass = test: Test B pre-/postemergence herbicide test; format: in vivo, Urochloa decumbens
In short: (§4)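 Visual rating, 0 (no effect) to 100 (complete control), versus untreated controls after 13–15 d in greenhouse. Pre- and postemergence applications (postemergence plants 2–18 cm, 1–4 leaves); flooded paddy arm at 2-leaf stage. Compounds in non-phytotoxic solvent plus surfactant.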

redroot pigweed = test: Test A pre-/postemergence herbicide test; format: in vivo, Amaranthus retroflexus; settings: for Plant response rating, Pigweed: Postemergence; for Pigweed plant response rating: Preemergence
In short: as §3

barnyardgrass [2] = test: Test B pre-/postemergence herbicide test; format: in vivo, Echinochloa crus-galli
In short: as §2

corn = test: Test B pre-/postemergence herbicide test; format: in vivo, Zea mays
In short: as §4

pigweed = test: Test B pre-/postemergence herbicide test; format: in vivo, Amaranthus retroflexus
In short: as §4

barnyardgrass [3] = test: Test B flooded paddy test; format: in vivo, Echinochloa crus-galli; settings: 1000 g ai/ha, visual rating, scale 0 to 100 (0 no effect, 100 complete control), 13 to 15 days
In short: as §1

large crabgrass [4] = test: Test A pre-/postemergence herbicide test; format: in vivo, Digitaria sanguinalis; settings: for Plant response rating, Crabgrass, Large: Postemergence; for Crabgrass, Large plant response rating: Preemergence
In short: as §3

giant foxtail [5] = test: Test B pre-/postemergence herbicide test; format: in vivo, Setaria faberi
In short: as §4

[6] = tested on: small flower umbrella sedge; test: Test B flooded paddy test; format: in vivo, Cyperus difformis; settings: 1000 g ai/ha, visual rating, scale 0 to 100 (0 no effect, 100 complete control), 13 to 15 days
In short: as §1

velvetleaf [7] = test: Test A pre-/postemergence herbicide test; format: in vivo, Abutilon theophrasti; settings: for Velvetleaf plant response rating: Preemergence
In short: as §3

rice [8] = test: Test B pre-/postemergence herbicide test; format: in vivo, Oryza sativa
In short: as §4

wild oat = test: Test B postemergence herbicide test; format: in vivo, Avena fatua; settings: scale 0 (no effect) to 100 (complete control)
In short: as §1

lambsquarters = test: Test B pre-/postemergence herbicide test; format: in vivo, Chenopodium album
In short: as §4

ducksalad = test: Test B flooded paddy test; format: in vivo, Heteranthera limosa; settings: 1000 g ai/ha, visual rating, scale 0 to 100 (0 no effect, 100 complete control), 13 to 15 days
In short: as §1

morningglory [9] = test: Test B pre-/postemergence herbicide test; format: in vivo, Ipomoea coccinea
In short: as §2

large crabgrass [10] = test: Test B pre-/postemergence herbicide test; format: in vivo, Digitaria sanguinalis
In short: as §4

morningglory [11] = test: Test A pre-/postemergence herbicide test; format: in vivo, Ipomoea spp.; settings: for Plant response rating, Morningglory: Postemergence; for Morningglory plant response rating: Preemergence
In short: as §3

rice [12] = test: Test B flooded paddy test; format: in vivo, Oryza sativa; settings: 1000 g ai/ha, visual rating, scale 0 to 100 (0 no effect, 100 complete control), 13 to 15 days
In short: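 Read-out: visual comparison with controls, scored 0 to 100, where 100 means complete control and 0 no effect. Formulated chemicals were applied postemergence to plants 2–18 cm tall (1- to 4-leaf), or to flooded-paddy plants at the 2-leaf stage, then held 13 to 15 days under glass.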

barnyardgrass [13] = test: Test A pre-/postemergence herbicide test; format: in vivo, Echinochloa crus-galli; settings: for Plant response rating, Barnyardgrass: Postemergence; for Barnyardgrass plant response rating: Preemergence
In short: as §3

velvetleaf [14] = test: Test B pre-/postemergence herbicide test; format: in vivo, Abutilon theophrasti
In short: as §4

[15] = Postemergence, 500 g ai/ha, visual rating after 13 to 15 days
[16] = postemergence, 125 g ai/ha, visual rating
[17] = Postemergence, 500 g ai/ha, visual rating after 13 to 15 days, scale 0 (no effect) to 100 (complete control)
[18] = Preemergence, 500 g ai/ha, scale 0 to 100
[19] = postemergence, 125 g ai/ha, visual rating, scale 0 (no effect) to 100 (complete control)
[20] = preemergence, 125 g ai/ha, 0 to 100 scale, 0 is no effect, 100 is complete control
[21] = 500 g ai/ha, 0 to 100 scale, 0 no effect, 100 complete control
[22] = 2000 g ai/ha, 0 to 100 scale, 0 no effect, 100 complete control
[23] = 500 g ai/ha, visual rating, 0 to 100 scale (0 no effect, 100 complete control)

## CCn1nc(C(C)(C)C)cc1C(=O)Nc1cccc2c1CNC2=O [Compound 52]
blackgrass; [15]
  Plant response rating, Blackgrass: 0
blackgrass; [16]
  Blackgrass plant response rating: 0
cocklebur; [17]
  Plant response rating, Cocklebur: 40
cocklebur; [18]
  Cocklebur plant response rating: 10
cocklebur; [19]
  Cocklebur plant response rating: 20
cocklebur; [20]
  Plant response rating, Cocklebur: 0
wheat; [15]
  Plant response rating, Wheat: 0
wheat; [16]
  Wheat plant response rating: 0
Giant foxtail [1]; [21]
  Plant response rating, Foxtail, Giant: 25
Giant foxtail [1]; [22]
  Plant response rating, Foxtail, Giant: 25
  Foxtail, Giant plant response rating: 60
Giant foxtail [1]; [23]
  Foxtail, Giant plant response rating: 20
Surinam grass; [17]
  Plant response rating, Surinam Grass: 0
Surinam grass; [18]
  Surinam Grass plant response rating: 30
Surinam grass; [19]
  Surinam Grass plant response rating: 0
Surinam grass; [20]
  Plant response rating, Surinam Grass: 0
Redroot pigweed; [21]
  Plant response rating, Pigweed: 30
Redroot pigweed; [22]
  Plant response rating, Pigweed: 35
  Pigweed plant response rating: 90
Redroot pigweed; [23]
  Pigweed plant response rating: 90
Barnyardgrass [2]; [17]
  Plant response rating, Barnyardgrass: 0
Barnyardgrass [2]; [18]
  Barnyardgrass plant response rating: 60
Barnyardgrass [2]; [19]
  Barnyardgrass plant response rating: 0
Barnyardgrass [2]; [20]
  Plant response rating, Barnyardgrass: 10
corn; [17]
  Plant response rating, Corn: 40
corn; [18]
  Corn plant response rating: 0
corn; [19]
  Corn plant response rating: 10
corn; [20]
  Plant response rating, Corn: 0
pigweed; [17]
  Plant response rating, Pigweed: 10
pigweed; [18]
  Pigweed plant response rating: 90
pigweed; [19]
  Pigweed plant response rating: 0
pigweed; [20]
  Plant response rating, Pigweed: 0
Barnyardgrass [3]
  Barnyardgrass plant response rating: 20
Large crabgrass [4]; [21]
  Plant response rating, Crabgrass, Large: 0
Large crabgrass [4]; [22]
  Plant response rating, Crabgrass, Large: 20
  Crabgrass, Large plant response rating: 90
Large crabgrass [4]; [23]
  Crabgrass, Large plant response rating: 70
Giant foxtail [5]; [17]
  Plant response rating, Foxtail, Giant: 10
Giant foxtail [5]; [18]
  Foxtail, Giant plant response rating: 60
Giant foxtail [5]; [19]
  Foxtail, Giant plant response rating: 10
Giant foxtail [5]; [20]
  Plant response rating, Foxtail, Giant: 10
[6]
  Sedge, Umbrella plant response rating: 40
Velvetleaf [7]; Postemergence, 2000 g ai/ha, 0 to 100 scale, 0 no effect, 100 complete control
  Plant response rating, Velvetleaf: 20
Velvetleaf [7]; [23]
  Velvetleaf plant response rating: 15
Velvetleaf [7]; [22]
  Velvetleaf plant response rating: 50
Rice [8]; [18]
  Rice plant response rating: 80
Rice [8]; [20]
  Plant response rating, Rice: 0
Wild oat; [15]
  Plant response rating, Oat, Wild: 10
Wild oat; [16]
  Oat, Wild plant response rating: 0
lambsquarters; [17]
  Plant response rating, Lambsquarters: 80
lambsquarters; [18]
  Lambsquarters plant response rating: 90
lambsquarters; [19]
  Lambsquarters plant response rating: 0
lambsquarters; [20]
  Plant response rating, Lambsquarters: 0
ducksalad
  Ducksalad plant response rating: 20
Morningglory [9]; [17]
  Plant response rating, Morningglory: 0
Morningglory [9]; [18]
  Morningglory plant response rating: 0
Morningglory [9]; [19]
  Morningglory plant response rating: 0
Morningglory [9]; [20]
  Plant response rating, Morningglory: 0
Large crabgrass [10]; [17]
  Plant response rating, Crabgrass, Large: 10
Large crabgrass [10]; [18]
  Crabgrass, Large plant response rating: 90
Large crabgrass [10]; [19]
  Crabgrass, Large plant response rating: 0
Large crabgrass [10]; [20]
  Plant response rating, Crabgrass, Large: 20
Morningglory [11]; [21]
  Plant response rating, Morningglory: 0
Morningglory [11]; [22]
  Plant response rating, Morningglory: 0
  Morningglory plant response rating: 10
Morningglory [11]; [23]
  Morningglory plant response rating: 0
Rice [12]
  Rice plant response rating: 0
Barnyardgrass [13]; [21]
  Plant response rating, Barnyardgrass: 25
Barnyardgrass [13]; [22]
  Plant response rating, Barnyardgrass: 55
  Barnyardgrass plant response rating: 90
Barnyardgrass [13]; [23]
  Barnyardgrass plant response rating: 25
Velvetleaf [14]; [17]
  Plant response rating, Velvetleaf: 20
Velvetleaf [14]; [18]
  Velvetleaf plant response rating: 20
Velvetleaf [14]; [19]
  Velvetleaf plant response rating: 10
Velvetleaf [14]; [20]
  Plant response rating, Velvetleaf: 0

— patent US20060069132A1, “Azolecarboxamide herbicides” (priority 2004, published 2006)
